The experiment deals with C. parvum strain UGA1. Put plainly: C. parvum growth inhibition assay (Nluc luminescence in HCT-8 cells). Type of experiment: cell-based, Cryptosporidium parvum. The following applies: for inhibition at 1 µM / inhibition at 10 µM / EC50: Cryptosporidium parvum; for inhibition at 1 µM / inhibition at 10 µM: HCT-8; for inhibition at 1 µM: read-out: % inh @ 1 uM C. parvum; for inhibition at 10 µM: read-out: % inh @ 10 uM C. parvum; for EC50: HCT-8, 48 h, C. parvum growth inhibition in HCT-8 cells, 48 hours, 6 concentrations 10-0.04 μM.

[1] abbreviates: single point inhibition at 1 uM.
Setting [2] is: single point inhibition at 10 uM.
Setting [3] is: single point inhibition @ 10 uM.

Each structure is given as a SMILES string. Read-outs that look alike come from different tables or passages of the source. Where only a bound is given, the exact number is not on record here.

A word on the EC50: it is the concentration that produces a half-maximal response.

As to `CO[C@H]1CC[C@@H](Nc2cc3[nH]c(-c4cccnc4)cc3cn2)CC1` [Example 228, N-((1s,4s)-4-methoxycyclohexyl)-2-(pyridin-3-yl)-1H-pyrrolo[3,2-c]pyridin-6-amine], the inhibition at 1 µM under setting [1] lay in the range of 33 to 66%. Moreover, the inhibition at 10 µM under setting [2] is 33 to 66%.
Take `Cc1cc(-c2cc3cnc(Nc4cccc(-c5nc[nH]n5)c4)cc3[nH]2)cc(N)n1` [Example 150, N-(3-(1H-1,2,4-triazol-3-yl)phenyl)-2-(2-amino-6-methylpyridin-4-yl)-1H-pyrrolo[3,2-c]pyridin-6-amine]: the inhibition at 1 µM (single point inhibition @ 1 uM) fell in the range of 0 to 33%. The inhibition at 10 µM under setting [3] was in the range of 67 to 100%.
Consider `Cn1c(-c2ccccn2)cc2cnc(NC(=O)C3CC3)cc21` [Example 129, N-(1-methyl-2-(pyridin-2-yl)-1H-pyrrolo[3,2-c]pyridin-6-yl)cyclopropanecarboxamide], for which the EC50 was above 1 µM.
Take `Cn1cc(C(=O)Nc2cc3[nH]c(-c4ccnc(C(F)(F)F)n4)cc3cn2)cn1` [Example 287, 1-methyl-N-(2-(2-(trifluoromethyl)pyrimidin-4-yl)-1H-pyrrolo[3,2-c]pyridin-6-yl)-1H-pyrazole-4-carboxamide]: the inhibition at 1 µM under setting [1] is 0 to 33%. Besides, the inhibition at 10 µM under setting [2] lay in the range of 0 to 33%.
As for `O=C(Nc1cc2[nH]c(-c3ccnc(OCCF)n3)cc2cn1)c1cnn(C2CCOCC2)c1` [Example 225, N-(2-(2-(2-fluoroethoxy)pyrimidin-4-yl)-1H-pyrrolo[3,2-c]pyridin-6-yl)-1-(tetrahydro-2H-pyran-4-yl)-1H-pyrazole-4-carboxamide], the inhibition at 1 µM under setting [1] lay in the range of 0 to 33%. Moreover, under setting [2], the inhibition at 10 µM is 33 to 66%.
As for `Cn1cc(C(=O)Nc2cc3[nH]c(C(F)(F)F)cc3cn2)cn1` [Example 341, 1-methyl-N-(2-(tirfluoromethyl)-1H-pyrrolo[3,2-c]pyridin-6-yl)-1H-pyrazole-4-carboxamide], under setting [1], the inhibition at 1 µM was in the range of 0 to 33%. For the same compound, under setting [2], the inhibition at 10 µM is 0 to 33%.
With `N#Cc1cc2cnc(Nc3cnn(C4CCOCC4)c3)cc2[nH]1` [Example 151, 6-(1-(tetrahydro-2H-pyran-4-yl)-1H-pyrazol-4-ylamino)-1H-pyrrolo[3,2-c]pyridine-2-carbonitrile], under “single point inhibition @ 1 uM”, the inhibition at 1 µM was in the range of 0 to 33%. The inhibition at 10 µM under setting [3] was in the range of 67 to 100%.
For `CC(C)CNc1cc2[nH]c(-c3cccnc3)cc2cn1` [Example 273, N-isobutyl-2-(pyridin-3-yl)-1H-pyrrolo[3,2-c]pyridin-6-amine], under setting [1], the inhibition at 1 µM lay within 0 to 33%. Also, under setting [2], the inhibition at 10 µM lay within 0 to 33%.
As for `Cn1cc(C(=O)Nc2cc3[nH]c(-c4cncn4C)cc3cn2)cn1` [Example 90, 1-methyl-N-(2-(1-methyl-1H-imidazol-5-yl)-1H-pyrrolo[3,2-c]pyridin-6-yl)-1H-pyrazole-4-carboxamide], the EC50 was above 1 µM. Also, where the note is “single point inhibition @ 1 uM”, the inhibition at 1 µM lay within 33 to 66%. Besides, the inhibition at 10 µM under setting [3] lay in the range of 0 to 33%.
Compound `Cc1cc(-c2cc3cnc(NC4CCOCC4)cc3n2C)ccn1` [Example 59, 1-methyl-2-(2-methylpyridin-4-yl)-N-(tetrahydro-2H-pyran-4-yl)-1H-pyrrolo[3,2-c]pyridin-6-amine] had an EC50 above 1 µM.
For the compound `CCOc1nccc(-c2cc3cnc(NC(=O)CC4COC4)cc3[nH]2)n1` [Example 139, N-(2-(2-ethoxypyrimidin-4-yl)-1H-pyrrolo[3,2-c]pyridin-6-yl)-2-(oxetan-3-yl)acetamide], the inhibition at 1 µM (single point inhibition @ 1 uM) lay in the range of 0 to 33%. In addition, the inhibition at 10 µM under setting [3] was in the range of 67 to 100%.
Take `COc1nccc(-c2cc3cnc(NC(=O)c4cccc5c4cnn5C)cc3[nH]2)n1` [Example 220, N-(2-(2-methoxypyrimidin-4-yl)-1H-pyrrolo[3,2-c]pyridin-6-yl)-1-methyl-1H-indazole-4-carboxamide]: the inhibition at 1 µM under setting [1] lay within 0 to 33%. Further, the inhibition at 10 µM under setting [2] fell in the range of 33 to 66%.
Consider `Cc1cc2cnc(NC(=O)c3cnn(C)c3)cc2[nH]1` [Example 285, 1-methyl-N-(2-methyl-1H-pyrrolo[3,2-c]pyridin-6-yl)-1H-pyrazole-4-carboxamide], for which, under setting [1], the inhibition at 1 µM lay within 0 to 33%. Besides, the inhibition at 10 µM under setting [2] was 0 to 33%.
`Cc1ccccc1-c1cc2cnc(NC3CCOCC3)cc2[nH]1` [Example 357, N-(tetrahydro-2H-pyran-4-yl)-2-o-tolyl-1H-pyrrolo[3,2-c]pyridin-6-amine] showed an EC50 above 1 µM.
Turning to `Cn1cc(C(=O)Nc2cc3[nH]c(-c4ccnc(O[C@H]5CC[C@@H](O)CC5)n4)cc3cn2)cn1` [Example 325, N-(2-(2-((1s,4s)-4-hydroxycyclohexyloxy)pyrimidin-4-yl)-1H-pyrrolo[3,2-c]pyridin-6-yl)-1-methyl-1H-pyrazole-4-carboxamide], the “% inh @ 1 uM C. parvum” value under setting [1] was “D (single point inhibition values of 0-33% (activity level D))”. The “% inh @ 10 uM C. parvum” value under setting [2] is recorded as “D (single point inhibition values of 0-33% (activity level D))”.
As for `Cc1cc(-c2cc3cnc(NC(=O)C4CC(C)(O)C4)cc3[nH]2)ccn1` (stereo not drawn) [Example 202, 3-hydroxy-3-methyl-N-(2-(2-methylpyridin-4-yl)-1H-pyrrolo[3,2-c]pyridin-6-yl)cyclobutanecarboxamide], under setting [1], the inhibition at 1 µM was 0 to 33%. Besides, the inhibition at 10 µM under setting [2] was in the range of 67 to 100%.
With `CCOc1nccc(-c2cc3cnc(NC(=O)c4ccc(OCCOC)c(OC)c4)cc3[nH]2)n1` [Example 249, N-(2-(2-ethoxypyrimidin-4-yl)-1H-pyrrolo[3,2-c]pyridin-6-yl)-3-methoxy-4-(2-methoxyethoxy)benzamide], under setting [1], the inhibition at 1 µM lay within 0 to 33%. Further, the inhibition at 10 µM under setting [2] fell in the range of 0 to 33%.
In the case of `CC(=O)Nc1cc2c(cn1)cc(C#N)n2C` [Example 245, N-(2-cyano-1-methyl-1H-pyrrolo[3,2-c]pyridin-6-yl)acetamide], the inhibition at 1 µM under setting [1] fell in the range of 0 to 33%. Further, the inhibition at 10 µM under setting [2] is 0 to 33%.
For the compound `Cc1ncc(-c2cc3cnc(NC(=O)c4cnn(C)c4)cc3[nH]2)o1` [Example 267, 1-methyl-N-(2-(2-methyloxazol-5-yl)-1H-pyrrolo[3,2-c]pyridin-6-yl)-1H-pyrazole-4-carboxamide], the inhibition at 1 µM under setting [1] was 0 to 33%. Also, under setting [2], the inhibition at 10 µM was 0 to 33%.
On to `Cc1cc(C(=O)Nc2cc3[nH]c(-c4ccnc(NCC(F)(F)F)c4)cc3cn2)nn1C` [Example 305, 1,5-dimethyl-N-(2-(2-(2,2,2-trifluoroethylamino)pyridin-4-yl)-1H-pyrrolo[3,2-c]pyridin-6-yl)-1H-pyrazole-3-carboxamide], for which the inhibition at 1 µM under setting [1] lay within 0 to 33%. Besides, the inhibition at 10 µM under setting [2] was 0 to 33%.
With `Cc1ccc(-c2cc3cnc(NC(=O)C4CC4)cc3n2C)nc1` [Example 347, N-(1-methyl-2-(5-methylpyridin-2-yl)-1H-pyrrolo[3,2-c]pyridin-6-yl)cyclopropanecarboxamide], the EC50 was above 1 µM.
For the compound `Cc1ncc(-c2cc3cnc(NC(=O)C4CC4)cc3[nH]2)s1` [Example 101, N-(2-(2-methylthiazol-5-yl)-1H-pyrrolo[3,2-c]pyridin-6-yl)cyclopropanecarboxamide], the EC50 is above 1 µM.
Still for that read-out and setting: in the case of `Cc1cc(-c2cc3cnc(NC(=N)C4CC4)cc3[nH]2)ccn1` [Example 96, N-(2-(2-methylpyridin-4-yl)-1H-pyrrolo[3,2-c]pyridin-6-yl)cyclopropanecarboximidamide] it was above 1 µM.
Turning to `Cc1cc(-c2cc3cnc(NC(=O)c4ncoc4C)cc3[nH]2)ccn1` [Example 290, 5-methyl-N-(2-(2-methylpyridin-4-yl)-1H-pyrrolo[3,2-c]pyridin-6-yl)oxazole-4-carboxamide], under setting [1], the inhibition at 1 µM fell in the range of 0 to 33%. Besides, the inhibition at 10 µM under setting [2] is 0 to 33%.
Regarding `Cn1cnc(-c2cc3cnc(NC(=O)C4CC4)cc3[nH]2)c1` [Example 60, N-(2-(1-methyl-1H-imidazol-4-yl)-1H-pyrrolo[3,2-c]pyridin-6-yl)cyclopropanecarboxamide], the EC50 was above 1 µM.
The same measure, in the same setting: in the case of `CC(C)c1nccc(-c2cc3cnc(NC4CCOCC4)cc3n2C)n1` [Example 391, 2-(2-isopropylpyrimidin-4-yl)-1-methyl-N-(tetrahydro-2H-pyran-4-yl)-1H-pyrrolo[3,2-c]pyridin-6-amine] it was above 1 µM.
Take `COc1nccc(-c2cc3cnc(NC(=O)c4cccc5[nH]ncc45)cc3[nH]2)n1` [Example 269, N-(2-(2-methoxypyrimidin-4-yl)-1H-pyrrolo[3,2-c]pyridin-6-yl)-1H-indazole-4-carboxamide]: the inhibition at 1 µM under setting [1] is 0 to 33%. For the same compound, under setting [2], the inhibition at 10 µM lay in the range of 0 to 33%.
With `c1cc(Nc2cc3[nH]c(-c4cccnc4)cc3cn2)cc(-c2nc[nH]n2)c1` [Example 272, N-(3-(1H-1,2,4-triazol-3-yl)phenyl)-2-(pyridin-3-yl)-1H-pyrrolo[3,2-c]pyridin-6-amine], under setting [1], the inhibition at 1 µM fell in the range of 0 to 33%. The inhibition at 10 µM under setting [2] was in the range of 0 to 33%.
For `Cc1cc(-c2cc3cnc(NC(=O)NC4CC4)cc3[nH]2)ccn1` [Example 209, 1-cyclopropyl-3-(2-(2-methylpyridin-4-yl)-1H-pyrrolo[3,2-c]pyridin-6-yl)urea], the inhibition at 1 µM under setting [1] was 0 to 33%. Further, the inhibition at 10 µM under setting [2] was in the range of 67 to 100%.
On the same counts, the results for `Cc1cc(-c2cc3cnc(NC(=O)C4CC4)cc3[nH]2)ccc1F` [Example 340, N-(2-(4-fluoro-3-methylphenyl)-1H-pyrrolo[3,2-c]pyridin-6-yl)cyclopropanecarboxamide] are 0 to 33% and 0 to 33%.
On to `Cn1ccc(C(=O)Nc2cc3[nH]c(-c4ccncc4)cc3cn2)n1` [Example 238, 1-methyl-N-(2-(pyridin-4-yl)-1H-pyrrolo[3,2-c]pyridin-6-yl)-1H-pyrazole-3-carboxamide], for which the inhibition at 1 µM under setting [1] lay within 0 to 33%. In addition, the inhibition at 10 µM under setting [2] fell in the range of 0 to 33%.
Turning to `c1ncc(-c2cc3cnc(Nc4cnn(C5CCOCC5)c4)cc3[nH]2)o1` [Example 147, 2-(oxazol-5-yl)-N-(1-(tetrahydro-2H-pyran-4-yl)-1H-pyrazol-4-yl)-1H-pyrrolo[3,2-c]pyridin-6-amine], the inhibition at 1 µM (single point inhibition @ 1 uM) lay in the range of 0 to 33%. For the same compound, the inhibition at 10 µM under setting [3] fell in the range of 67 to 100%.

These data come from patent publication US20240124444A1 (Celgene Corporation, priority 2020, published 2024).
